In patent US12391646B2, “Using adiponectin receptor agonists to treat inflammation and bone diseases in diabetes” (Trustees of Tufts College, priority 2020, dated 2025):

Experiments:
[1] = system: AdipoRs; details: cited from earlier work
[2] = cited from earlier work
[3] = system: RAW 264.7 cells; experiment: CCK-8 cell viability assay, Example 2; details: 2 days, compared with vehicle-treated group
Description: RAW 264.7 cells were treated with receptor activator of nuclear factor KB ligand (RANKL) (100 ng/ml) for 2 days with or without AdipoRon (20 μM) or AdipoAI (5 μM) for another 2 days. […] (C) The CCK-8 analysis of RAW 264.7 cells treated with 20 μM AdipoRon or 5 μM AdipoAI for 48 h. (D) The CCK-8 analysis of RAW 264.7 cells' proliferation at different doses of APR and AdipoAI. Cells were treated with 100 ng/ml RANKL for 2 days with or without AdipoRon (5, 20 μM) or AdipoAI (5, 20 μM) every 2 days for 4 days. […] Data are shown as mean±SD., compared with the vehicle-treated group, *P<0.05. **P<0.01. ***P<0.001.
RAW 264.7 cells (2×10^3 cells/well) were seeded in 96-well plates and treated with or without AdipoRon or AdipoAI for 48 hours in a humidified chamber at 37° C. in 5% CO2 and air. Cell viability was determined with the Cell Counting Kit-8 (CCK-8 kit, Dojindo, Santa Clara, CA, USA) following the manufacturer's recommendations. Briefly, CCK-8 solution (10 μL) was added to each well and cells were incubated in dark for 3 hours. Cell viability was determined by measuring the absorbance at 450 nm.

[4] = system: LPS-induced Raw264.7 cells; experiment: ELISA of IL-6 and IL-1β in supernatants of LPS-induced Raw264.7 cells; type: cell-based; details: AdipoAI 5 μM 24 h then LPS 6 h
Description: FIG. 2 AdipoAI suppresses LPS-stimulated inflammatory responses in macrophages. (a) Raw264.7 cells or (b) BMMs were pretreated with APR (20 μM) or AdipoAI (5 μM) for 24 h followed by incubation with LPS (100 ng/mL) for additional 6 h for the measurement of IL-6 and IL-1β in supernatants by ELISA. Data were expressed as the mean±SEM at five biological independent experiments. One-way ANOVA test for multiple-group comparisons, * vs. LPS group, *P<0.05, significant differences between each indicated group. (c) PEMs were isolated from C57BL/6J mice (n=5 mice/group) were injected i.p. with ImL 4% thioglycolate solution or AdipoAI (25 mg/kg) for the measurement of IL-6 and IL-1β. The amounts of IL-6 and IL-1β in supernatant were measured by ELISA. Data were expressed as the mean±SEM (n=5). Two-tailed Student's t-test for two groups, *P<0.05, significant differences between each indicated group. (d-f) Impact of AdipoAI on basal (d) and LPS-induced expression of an array of proinflammatory cytokines, chemokines, and receptors (e,f) in Raw264.7 cells (4 groups and 3 biological replicates/group). Data analyses were performed according to the manufacturer's instructions with their web-based software package (www.qiagen.com/us/shop/genes-and-pathways/data-analysis-center overview-page/). […]

In the case of `O=C(COc1ccc(C(=O)c2ccccc2)cc1)NC1CCN(Cc2ccccc2)CC1` [AdipoRon, reference compound], the “binding affinity for AdipoRs” value [1] is given as “low binding affinity for AdipoRs”, the solubility [2] is given as “relatively low solubility” and the “number of RAW 264.7 cells (CCK-8) at 20 μM” value [3] is given as “did not reduce the number of RAW 264.7 cells”.
In the case of `COc1ccc(CN2CCC(NC(=O)COc3ccc(C(=O)c4ccc(Cl)cc4)cc3)CC2)cc1` [Compound 3], the “IL-6 and IL-1β protein levels (ELISA)” value [4] is reported as “decreased IL-6 and IL-1β protein levels”.
